Measurements reported in patent US10100001B2, “Adenylyl cyclase inhibitors for neuropathic and inflammatory pain” (Purdue Research Foundation, priority 2015, dated 2018).

Tests used:
[1] = tested on: neuroinflammatory and neuropathic pain rodent models; conditions: cited from earlier work
AC1 = target: T1, AC1 (Homo sapiens, UniProt Q08828); test: Inhibition of A23187-mediated (Ca2+-stimulated) cAMP accumulation in HEK cells stably expressing AC1; format: cell-based; conditions: for inhibition at 4 µM / inhibition at 40 µM: HEK293, read-out: AC1 Inhibition Percentage; for inhibition at 4 µM: 4 μM compound; for inhibition at 40 µM: 40 μM compound; for IC50: HEK cells stably expressing AC1, inhibitors 30 min, then 3 μM A23187 with IBMX, average and S.E.M. of at least three independent experiments, read-out: IC50 for inhibition of the A23187-mediated cAMP response of AC1
T1 construct: expressed in transfected cells
T1 sequence (Q08828 whole entry): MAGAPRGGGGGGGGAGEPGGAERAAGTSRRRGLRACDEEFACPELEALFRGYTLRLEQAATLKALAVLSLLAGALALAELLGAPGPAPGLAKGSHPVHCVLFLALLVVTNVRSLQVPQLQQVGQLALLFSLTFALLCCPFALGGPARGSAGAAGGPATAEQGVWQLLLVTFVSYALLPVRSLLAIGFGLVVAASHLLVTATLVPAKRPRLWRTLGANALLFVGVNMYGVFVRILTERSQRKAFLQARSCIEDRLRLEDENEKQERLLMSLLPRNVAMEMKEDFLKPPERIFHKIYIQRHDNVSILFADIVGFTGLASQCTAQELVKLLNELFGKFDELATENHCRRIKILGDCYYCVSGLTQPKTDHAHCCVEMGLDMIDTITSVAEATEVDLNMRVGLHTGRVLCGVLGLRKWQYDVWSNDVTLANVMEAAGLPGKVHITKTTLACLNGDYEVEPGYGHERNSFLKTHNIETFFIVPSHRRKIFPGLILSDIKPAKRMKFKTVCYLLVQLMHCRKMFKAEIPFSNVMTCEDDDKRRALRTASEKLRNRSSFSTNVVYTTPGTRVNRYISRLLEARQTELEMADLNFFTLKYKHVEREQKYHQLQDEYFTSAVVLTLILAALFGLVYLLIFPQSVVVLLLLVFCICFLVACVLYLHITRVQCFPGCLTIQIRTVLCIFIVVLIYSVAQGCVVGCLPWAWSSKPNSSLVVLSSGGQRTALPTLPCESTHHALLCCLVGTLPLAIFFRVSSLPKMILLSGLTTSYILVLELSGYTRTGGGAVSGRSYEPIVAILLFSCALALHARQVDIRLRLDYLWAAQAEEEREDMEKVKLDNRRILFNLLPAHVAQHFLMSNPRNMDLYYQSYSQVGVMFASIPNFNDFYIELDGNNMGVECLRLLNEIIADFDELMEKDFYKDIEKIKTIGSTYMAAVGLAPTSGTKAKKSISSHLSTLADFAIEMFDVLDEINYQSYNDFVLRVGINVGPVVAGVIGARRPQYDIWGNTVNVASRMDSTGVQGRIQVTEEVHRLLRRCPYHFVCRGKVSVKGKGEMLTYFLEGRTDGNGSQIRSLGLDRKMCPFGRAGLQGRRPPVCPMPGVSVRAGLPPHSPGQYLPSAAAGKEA
Protocol: HEK cells stably expressing AC1 were treated with inhibitors for 30 min, and subsequently incubated with 3 μM A23187 in the presence of 2 mM IBMX. Data represent the average and S.E.M. of at least three independent experiments.
A23187 is a Ca2+ ionophore, which promotes Ca2+ binding to calmodulin in the cells and, subsequent stimulation of AC1.
HEK (human embryonic kidney) cells stably expressing human AC1, were cultured in Dubelcco's Modified Eagle Medium (Life Technologies, Grand Island, N.Y.) supplemented with 5% bovine calf serum (Hyclone, Logan, Utah), 5% fetal clone I (Hyclone, Logan, Utah), Antibiotic-Antimycotic (Life Technologies, Grand Island, N.Y.), and G418 (Invivogen, San Diego, Calif.). The cells were grown to confluency in 15 cm disses, harvested using Cell Dissociation Buffer (Life Technologies, Grand Island, N.Y.), and resuspended in 4 ml of fetal bovine serum (Hyclone, Logan, Utah) containing 10% dimethyl sulfoxide (Sigma-Aldrich, St. Louis, Mo.). 1 ml of cell suspension was added to cryovials that were incubated overnight at −80° C. in a CoolCell device (BioCision, Larkspur, Calif.) for cryopreservation. On the following day, cryovials were stored in liquid N2 until the assay day.
Cryopreserved HEK-AC1 cells were thawed in a 37° C. water-bath, resuspended in 10 ml optiMEM (Life Technologies, Grand Island, N.Y.) and centrifuged at 500×g for 5 min. The cells were resuspended in 10 ml optiMEM and the centrifugation step was repeated. Cells were then resuspended in 1 ml optiMEM and counted using a Countess automated cell counter (Life Technologies, Grand Island, N.Y.). Cells were added to a white, flat bottom, low-volume, tissue culture-treated 384 well plate (PerkinElmer, Shelton, Conn.) at a final density of 2500 cells/well. The plate was centrifuged for 1 min at 100×g and incubated in a 37° C. humidified incubator for 1 h. […] Following this incubation A23187 (Sigma-Aldrich, St. Louis, Mo.) (3 μM final concentration) containing 3-isobutyl-1-methylxanthine (Sigma-Aldrich, St. Louis, Mo.) (0.5 mM final concentration) was added. The plate was centrifuged for 1 min at 100×g and incubated at room temperature for 1 h. Cyclic AMP accumulation was measured using Cisbio's dynamic 2 kit (Cisbio Bioassays, Bedford, Mass.) according to the manufacturer's instructions. Plates were analyzed for fluorescent emissions at 620 nm and 665 nm using 330 nm as the excitation wavelength in a Cytation 3 Cell Imaging Multi-Mode Reader (Biotek, Winooski, Vt.), and ratiometric analysis was carried out by dividing the 665 nm emissions by the 620 nm emissions to extrapolate the cAMP concentrations from a cAMP standard curve. The data represent the average of at least three independent experiments ran in duplicate.

| SMILES | inhibition at 4 µM (AC1) | inhibition at 40 µM (AC1) | analgesic effects [1] | IC50 (AC1) |
| --- | --- | --- | --- | --- |
| Nc1ncnc2c1ncn2CCNCCCCCO [NB001] |  |  | analgesic effects |  |
| COc1ccc(CN(C/C=C/c2ccccc2)CCc2c[nH]c3ccccc23)cc1 [Compound 7ba, (E)-N-(2-(1H-indol-3-yl)ethyl)-N-(4-methoxybenzyl)-3-phenylprop-2-en-1-amine] | 34% | 98% |  |  |
| CN(C/C=C/c1ccc(I)cc1)Cc1cccc2ccccc12 [Compound 7fd, (E)-3-(4-iodophenyl)-N-methyl-N-(naphthalen-1-ylmethyl)prop-2-en-1-amine] | 11% | 94% |  |  |
| C(=C\c1ccccc1)/CN(CCc1c[nH]c2ccccc12)Cc1ccccc1 [Compound 7aa, (E)-N-(2-(1H-indol-3-yl)ethyl)-N-benzyl-3-phenylprop-2-en-1-amine] | 41% | 92% |  | 9.92 µM |
| CCOC(=O)c1ccc(/C=C/CN(CCCC(=O)OC)Cc2ccc(F)cc2)cc1 [Compound 7gd, (E)-ethyl 4-(3-((4-fluorobenzyl)(4-methoxy-4-oxobutyl)amino)prop-1-enyl)benzoate] | -24% | 71% |  |  |
| O=[N+]([O-])c1ccc(CN(C/C=C/c2ccccc2)CCc2c[nH]c3ccccc23)cc1 [Compound 7bc, (E)-N-(2-(1H-indol-3-yl)ethyl)-N-(4-nitrobenzyl)-3-phenylprop-2-en-1-amine] | 29% | 88% |  |  |
| Fc1ccc(CN(C/C=C/c2ccccc2)CCc2c[nH]c3ccccc23)cc1 [Compound 7bb, (E)-N-(2-(1H-indol-3-yl)ethyl)-N-(4-fluorobenzyl)-3-phenylprop-2-en-1-amine] | 31% | 96% |  |  |
| COc1ccc2c(c1)C(c1ccccc1)CN(C/C=C/c1ccc(F)cc1)CC2 (stereo not drawn) [Compound 7jd, (E)-3-(3-(4-fluorophenyl)allyl)-8-methoxy-1-phenyl-2,3,4,5-tetrahydro-1H-benzo[d]azepine] | 49% | 91% |  | 14.8 µM |
| CCOC(=O)c1ccc(/C=C/CN(CCc2c[nH]c3ccccc23)Cc2ccccc2)cc1 [Compound 7ai, (E)-ethyl 4-(3-((2-(1H-indol-3-yl)ethyl)(benzyl)amino)prop-1-enyl)benzoate] | 36% | 99% |  |  |
| Cc1cccc(/C=C/CN(C)Cc2cccc3ccccc23)c1 [Compound 7fb, (E)-N-methyl-N-(naphthalen-1-ylmethyl)-3-m-tolylprop-2-en-1-amine] | 2% | 63% |  |  |
| Clc1ccc(/C=C/CN(CCc2c[nH]c3ccccc23)Cc2ccccc2)cc1 [Compound 7af, (E)-N-(2-(1H-indol-3-yl)ethyl)-N-benzyl-3-(4-chlorophenyl)prop-2-en-1-amine] | 30% | 98% |  |  |

Continued, in another order:

| inhibition at 4 µM (AC1) | inhibition at 40 µM (AC1) | SMILES | analgesic effects [1] | IC50 (AC1) |
| --- | --- | --- | --- | --- |
| -3% | 51% | COc1ccc2c(c1)C(c1ccccc1)CN(C/C=C/c1ccc(I)cc1)CC2 (stereo not drawn) [Compound 7jc, (E)-3-(3-(4-iodophenyl)allyl)-8-methoxy-1-phenyl-2,3,4,5-tetrahydro-1H-benzo[d]azepine] |  |  |
| 72% | 95% | COc1ccc2c(c1)C(c1ccccc1)CN(CC=Cc1ccccc1)CC2 (stereo not drawn) [Compound 7ja, 3-cinnamyl-8-methoxy-1-phenyl-2,3,4,5-tetrahydro-1H-benzo[d]azepine] |  |  |
| 32% | 32% | COc1ccc2c(c1)C(c1ccc(Br)cc1)CN(C/C=C/c1ccc(Cl)cc1)CC2 (stereo not drawn) [Compound 7kc, (E)-1-(4-bromophenyl)-3-(3-(4-chlorophenyl)allyl)-8-methoxy-2,3,4,5-tetrahydro-1H-benzo[d]azepine] |  |  |
| 33% | 78% | COc1ccc2c(c1)C(c1ccccc1)CN(C/C=C/c1ccc(Cl)cc1)CC2 (stereo not drawn) [Compound 7je, (E)-3-(3-(4-chlorophenyl)allyl)-8-methoxy-1-phenyl-2,3,4,5-tetrahydro-1H-benzo[d]azepine] |  | 9.1 µM |
| 17% | 88% | COc1ccc2c(c1)C(c1ccccc1)CN(C/C=C/c1ccc(C(F)(F)F)cc1)CC2 (stereo not drawn) [Compound 7jf, (E)-8-methoxy-1-phenyl-3-(3-(4-(trifluoromethyl)phenyl)allyl)-2,3,4,5-tetrahydro-1H-benzo[d]azepine] |  |  |
| 6% | 73% | Cc1ccc(S(=O)(=O)N2CCCN(C/C=C/c3ccccc3)CC2)cc1 [Compound 7ha, 1-cinnamyl-4-tosyl-1,4-diazepane] |  |  |
